Structures are written as SMILES.

This assay concerns the target T1, A. pernix ADH (Aeropyrum pernix, UniProt Q9Y9P9).
T1 construct: heat treatment, DEAE Sepharose and Superdex 200
T1 sequence (Q9Y9P9 1-344): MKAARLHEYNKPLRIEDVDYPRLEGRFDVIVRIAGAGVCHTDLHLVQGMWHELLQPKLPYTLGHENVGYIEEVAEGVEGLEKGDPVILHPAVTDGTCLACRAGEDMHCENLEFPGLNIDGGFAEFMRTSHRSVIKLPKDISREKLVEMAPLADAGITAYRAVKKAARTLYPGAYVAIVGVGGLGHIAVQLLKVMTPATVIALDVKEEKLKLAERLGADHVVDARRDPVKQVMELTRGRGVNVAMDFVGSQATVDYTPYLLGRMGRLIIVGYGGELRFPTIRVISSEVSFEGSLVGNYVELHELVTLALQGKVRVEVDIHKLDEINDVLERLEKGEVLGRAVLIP
As to the kind of experiment: NADH formation, initial rate. Type of assay: biochemical. Particulars: 70 μM NAD+, 25 °C.

As for `NC(=O)c1ccc[n+]([C@@H]2O[C@H](COP(=O)(O)OP(=O)(O)OC[C@H]3O[C@@H](n4cnc5c(N)ncnc54)[C@H](O)[C@@H]3O)[C@@H](O)[C@H]2O)c1` [NAD^+], where the note is “CTAB/2-pentanol/isooctane reversed micelles, W0 16.7, 2-pentanol as co-substrate”, the “NADH formation, initial rate” value is on record as “A. pernix ADH showed NAD^+ reduction activity in a CTAB/2-pentanol/isooctane reversed micellar system”.
For the compound `CCCC(C)O` (centres unmarked) [2-pentanol], the “NADH formation, initial rate” value (aqueous, 50 mM potassium phosphate pH 7.4, 150 mM KCl, 1.2 μM enzyme, substrate activation) is recorded as “substrate activation was also observed when using 2-pentanol as a substrate in water”.

The values are drawn from paper PMC6257473, “Artificial Self-Sufficient P450 in Reversed Micelles” (Molecules, 2010).
